Data reported in patent US20040072862A1, “Compositions for treating ischemia-related neuronal damage” (priority 1999, published 2004).
pEC50: −log10 of the molar value.

Tests used:
[1] = test system: Oxygen/Glucose Deprived RGCs; experiment: Protection of oxygen/glucose deprived (OGD) retinal ganglion cells, EC50; format: cell-based, Sprague-Dawley rat; conditions: Rattus norvegicus; compound added from 30 min prior to OGD, during OGD, and 24 and 48 h after OGD
Method: (§1) Untreated OGD cells were also included as controls.
(§2) The tissue was then disrupted sequentially with a 1 ml pipette, in a solution containing ovomucoid (Boehringer-Mannheim), DNase (Sigma), and bovine serum albumin (BSA; Sigma) to yield a single cell suspension. The cells were then washed in a suspension of ovomucoid/BSA.

[2] = test system: OGD cells (retinal ganglion cells); experiment: Increase in survival of OGD cells, dose-dependent data; format: cell-based, Sprague-Dawley rat
Method: as §1, §2

## Oc1cccc2nc(Cc3nc4ccccc4[nH]3)[nH]c12 [SNX-926, 2-(benzimidazol-2-ylmethyl)benzimidazol-7-ol]
[1]
  pEC50: 7.40
[2]; Rattus norvegicus, 0.001 μM, read-out: Percent Increase in Survival over OGD Control Cells
  activation at 0.001 µM: < 50%
[2]; Rattus norvegicus, 0.01 μM, read-out: Percent Increase in Survival over OGD Control Cells
  activation at 0.01 µM: 50 to 100%
[2]; Rattus norvegicus, 0.1 μM, read-out: Percent Increase in Survival over OGD Control Cells
  activation at 0.1 µM: > 100%
[2]; Rattus norvegicus, 1 μM, read-out: Percent Increase in Survival over OGD Control Cells
  activation at 1 µM: > 100%
[2]; Rattus norvegicus, 10 μM, read-out: Percent Increase in Survival over OGD Control Cells
  activation at 10 µM: 50 to 100%
[2]; rat, retinal ganglion cells
  TI (therapeutic index): > 250
